Results reported in publication PMC5583658, “6,7-dimethoxy-1,2,3,4-tetrahydro-isoquinoline-3-carboxylic acid attenuates heptatocellular carcinoma in rats with NMR-based metabolic perturbations” (Future Science OA, 2017).

Test system: diethylnitrosamine-induced hepatocarcinogenic rats
Experiment: 1H-NMR-based serum metabolic profiling
Assay type: in vivo, albino Wistar rats
Settings: rat serum
Experimental: All animals were randomly divided into five groups of six animals each. Drugs were suspended in 0.25% CMC, subjected to 28 days’ treatment orally and divided as follows: Group I: 0.25% CMC (2 ml/kg), Group II: DEN (8 mg/kg, intraperitoneally), Group III: DEN+5-fluorouracil (5-FU, 10 mg/kg, intraperitoneally), Group IV: DEN+M1 (50 mg/kg, orally) and Group V: DEN+M1 (100 mg/kg, orally). The procedure to induce HCC was adopted from a paper by Song et al. where it is shown that DEN produces HCC at 8 mg/kg intraperitoneal injection for 28 days to albino Wistar rats. After initial 1 week of adaptive inhabitation, all rats of group II–V were administered with DEN (8 mg/kg, intraperitoneally) for 28 days. After 28 days, 5-FU and M1 were given for 15 days as mentioned above for group III–V. At the end of the experimental period, animals were sacrificed by cervical decapitation and livers were dissected out immediately, rinsed in ice cold saline and stored at -20°C for further studies. The serum was collected, processed and stored for further analysis.
All serum samples were thawed at room temperature, 250 μl of serum was taken and mixed with 250 μl of 0.9% saline sodium-phosphate buffer of strength 50 mM, pH 7.4 prepared in D2O. Then, the samples were centrifuged at 10,000 rpm for 5 min to remove any precipitates before acquiring the NMR data. A total 400 μl of the supernatant sample was used in 5 mm NMR tubes (Wilmad Glass, USA) for data acquisition with a co-axial insert containing the known concentration of TSP (sodium salt of 3-trimethylsilyl-(2,2,3,3-d4)-propionic acid) i.e. 0.1% was used as external standard reference to aid metabolite quantification for NMR experiment. Deuterium oxide (D2O; as a co-solvent and to provide a deuterium field/frequency lock) and sodium salt of trimethylsilylpropionic acid-d4 (TSP) used for NMR experiments, were purchased from Sigma-Aldrich (RI, USA).
All NMR spectra were recorded at 298 K on Bruker Biospin Avance-III 800 MHz NMR spectrometer operating at proton frequency of 800.21 MHz, equipped with CryoProbe and an actively shielded gradient unit with a maximum gradient-strength output of […]. The raw NMR data were processed in Topspin-2.1 (Bruker NMR data Processing Software). For each serum sample, one-dimensional ^1H-NMR and diffusion edited ^1H NMR spectra were recorded using the Carr–Purcell–Meiboom–Gill (CPMG) pulse sequence (cpmgpr1d, standard Bruker pulse program) with pre-saturation of the water peak through irradiating it continuously during the recycle delay (RD) of 5 sec, and the bipolar pulse pair longitudinal eddy current delay (BPP-LED) sequence, respectively. Each CPMG spectrum consisted of the accumulation of 128 scans and lasted for approximately 15 minutes. To remove broad signals from triglycerides, proteins, cholesterols and phospholipids, a total spin–spin relaxation time of 60 ms (n = 300 and 2τ=[…]) with a line broadening factor of 0.3 Hz was applied. For diffusion edited (DE)^1H NMR pulse sequence, the square gradients of 70% of the maximum gradient strength (56 G/cm) and 2 ms duration (followed by a delay of 200 μs to allow for the decay of eddy currents) were used. Diffusion time of 120 ms was used to attenuate the signals from low molecular weight compounds without affecting the lipid signals. All the spectra were processed using Topspin-2.1 (Bruker NMR data Processing Software) using standard Fourier Transformation (FT) procedure following manual phase and baseline-correction. Prior to FT, each FID was zero-filled to 4096 data points and a sine-bell apodisation function was applied. After FT, the chemical shifts were referenced internally to methyl peak of L-lactate (at δ=1.33 ppm). All recorded spectra were visually inspected for acceptability and subjected to multivariate statistical analysis to identify the altered metabolic pattern. […]

COc1cc2c(cc1OC)CC(C(=O)O)NC2 (stereo not shown) [M1, 6,7-dimethoxy-1,2,3,4-tetrahydro-isoquinoline-3-carboxylic acid]
↓: Variation with respect to DEN: Ace (chemical shift 1.92) (DEN+M1 50 mg/kg orally) | Variation with respect to DEN: Ala (chemical shift 1.48) (DEN+M1 50 mg/kg orally) | Variation with respect to DEN: Betaine (chemical shift 3.265) (DEN+M1 50 mg/kg orally) | Variation with respect to DEN: Chol (chemical shift 3.22) (DEN+M1 50 mg/kg orally) | Variation with respect to DEN: L1 (LDL) (chemical shift 0.83–0.87) (DEN+M1 50 mg/kg orally) | Variation with respect to DEN: L3 (LDL) (chemical shift 1.23–1.27) (DEN+M1 50 mg/kg orally) | Variation with respect to DEN: L6 (chemical shift 2.00) (DEN+M1 50 mg/kg orally) | Variation with respect to DEN: L9 (chemical shift 5.28) (DEN+M1 50 mg/kg orally) | Variation with respect to DEN: Lys (chemical shift 1.89) (DEN+M1 50 mg/kg orally) | Variation with respect to DEN: Pyr (chemical shift 2.37) (DEN+M1 50 mg/kg orally) | Variation with respect to DEN: Tyr (chemical shift 6.89) (DEN+M1 50 mg/kg orally) | Variation with respect to DEN: Ace (chemical shift 1.92) (DEN+M1 100 mg/kg orally) | Variation with respect to DEN: Ala (chemical shift 1.48) (DEN+M1 100 mg/kg orally) | Variation with respect to DEN: Betaine (chemical shift 3.265) (DEN+M1 100 mg/kg orally) | Variation with respect to DEN: Chol (chemical shift 3.22) (DEN+M1 100 mg/kg orally) | Variation with respect to DEN: Cr (chemical shift 3.03) (DEN+M1 100 mg/kg orally) | Variation with respect to DEN: L1 (LDL) (chemical shift 0.83–0.87) (DEN+M1 100 mg/kg orally) | Variation with respect to DEN: Lys (chemical shift 1.89) (DEN+M1 100 mg/kg orally) | Variation with respect to DEN: Pyr (chemical shift 2.37) (DEN+M1 100 mg/kg orally) | Variation with respect to DEN: Tyr (chemical shift 6.89) (DEN+M1 100 mg/kg orally)
↑: Variation with respect to DEN: Acac (chemical shift 2.28) (DEN+M1 50 mg/kg orally) | Variation with respect to DEN: Acet (chemical shift 2.23) (DEN+M1 50 mg/kg orally) | Variation with respect to DEN: Cit (chemical shift 2.52) (DEN+M1 50 mg/kg orally) | Variation with respect to DEN: Cr (chemical shift 3.03) (DEN+M1 50 mg/kg orally) | Variation with respect to DEN: L2 (VLDL) (chemical shift 0.87–0.90) (DEN+M1 50 mg/kg orally) | Variation with respect to DEN: L4 (VLDL) (chemical shift 1.27–1.30) (DEN+M1 50 mg/kg orally) | Variation with respect to DEN: Leu (chemical shift 0.96) (DEN+M1 50 mg/kg orally) | Variation with respect to DEN: NAG (chemical shift 2.02) (DEN+M1 50 mg/kg orally) | Variation with respect to DEN: OAG (chemical shift 2.13) (DEN+M1 50 mg/kg orally) | Variation with respect to DEN: Acac (chemical shift 2.28) (DEN+M1 100 mg/kg orally) | Variation with respect to DEN: Acet (chemical shift 2.23) (DEN+M1 100 mg/kg orally) | Variation with respect to DEN: Cit (chemical shift 2.52) (DEN+M1 100 mg/kg orally) | Variation with respect to DEN: ILeu (chemical shift 1.00) (DEN+M1 100 mg/kg orally) | Variation with respect to DEN: L2 (VLDL) (chemical shift 0.87–0.90) (DEN+M1 100 mg/kg orally) | Variation with respect to DEN: L4 (VLDL) (chemical shift 1.27–1.30) (DEN+M1 100 mg/kg orally) | Variation with respect to DEN: Leu (chemical shift 0.96) (DEN+M1 100 mg/kg orally) | Variation with respect to DEN: NAG (chemical shift 2.02) (DEN+M1 100 mg/kg orally)
